The values below come from patent publication US20250041204A1, “COMPOSITION COMPRISING LACTOBACILLUS CRISPATUS BACTERIAL LYSATES AND/OR BACTERIA FOR IMPROVING SKIN CONDITION” (BIOTIX PTE LTD, priority 2021, published 2025).

Data set [1] has as its system primary adult keratinocytes (NHEK). The experiment in a line: In vitro irritation model (SDS, MTT survival). Format: cell-based. Conditions: for protection of keratinocytes from SDS induced cell damage: in vitro irritant test, comparison of active principles. How it is done: Next, the functional effects of L. Crispatus in keratinocytes was investigated using an in vitro irritation model using primary adult keratinocytes (NHEK).
Primary keratinocytes from passage 2 to 3 were cultured in 96 well plates at a seed concentration of 7,000 cells/well and cultured in complete keratinocyte medium. […] After 2 hours pre incubation, cells were treated with SDS. 2 hours later MTT was added to the culture and incubated for further 2 hours for a total incubation time of 6 hours. After incubation, the MTT assay was developed according to manufacturing instruction and O.D was measured in a 96 well plate reader to determine the survival rate of the keratinocytes.

Data set [2] relates to skin of healthy volunteers. As to the kind of experiment: Skin irritant test in healthy volunteers (occlusive plaster on forearm). Conditions: SDS 4% in PBS alone, 24 hours occlusion. Format: in vivo, human. How it is done: The same amount of each solution was applied to a plaster with a dimension of 1 cm^2. The plasters containing the solutions were then applied on the forearm of healthy donors in occlusion to increase penetration of the solution into the skin. 24 hours after application, the plasters were removed, pictures were recorded and irritation was evaluated by blinded dermatologists.

As to `CC(C)(CO)[C@@H](O)C(=O)NCCCO` [Panthenol], in data set [1], the “protection of keratinocytes from SDS induced cell damage” value is on record as “not any other active principle protected”.
As for `CCCCCCCCCCCCOS(=O)(=O)[O-].[Na+]` [SDS], the survival rate in data set [1] (SDS alone, 6 to 8 hours incubation, MTT) came out at 0%. In data set [2], the “skin inflammation (erythema and immune cell infiltration)” value was “induced skin inflammation in all the individuals”.
In the case of Ceramides, the “protection of keratinocytes from SDS induced cell damage” value in data set [1] is given as “not any other active principle protected”.
